The source made the active and inactive calls. How the calls were made is not given here.
Tested on: CCRIS mutagenicity, Ames/micronucleus/aberration tests
Test: CCRIS mutagenicity studies
[1] = Test System: AMES SALMONELLA TYPHIMURIUM, Strain/Indicator: TA100, Metabolic Activation: NONE, Method: STANDARD PLATE
[2] = Test System: AMES SALMONELLA TYPHIMURIUM, Strain/Indicator: TA100, Metabolic Activation: RAT, LIVER, S-9, AROCLOR 1254, Method: STANDARD PLATE
[3] = Test System: AMES SALMONELLA TYPHIMURIUM, Strain/Indicator: TA102, Metabolic Activation: NONE, Method: STANDARD PLATE
[4] = Test System: AMES SALMONELLA TYPHIMURIUM, Strain/Indicator: TA98, Metabolic Activation: NONE, Method: STANDARD PLATE
[5] = Test System: AMES SALMONELLA TYPHIMURIUM, Strain/Indicator: TA98, Metabolic Activation: NONE, Method: PREINCUBATION

SMILES: CCN(N)CC
- mutagenic call (Test System: AMES SALMONELLA TYPHIMURIUM, Strain/Indicator: TA100, Metabolic Activation: NONE, Method: PREINCUBATION (11 HR GROWTH PERIOD FOR BACTERIA)): inactive; negative
- mutagenic call [1]: inactive; negative
- mutagenic call [2]: inactive; negative
- mutagenic call (Test System: AMES SALMONELLA TYPHIMURIUM, Strain/Indicator: TA100, Metabolic Activation: RAT, LIVER, S-9, PCB, Method: PREINCUBATION (11 HR GROWTH PERIOD FOR BACTERIA)): inactive; negative
- mutagenic call (Test System: AMES SALMONELLA TYPHIMURIUM, Strain/Indicator: TA102, Metabolic Activation: NONE, Method: PREINCUBATION (5 HR GROWTH PERIOD FOR BACTERIA)): active; positive
- mutagenic call (Test System: AMES SALMONELLA TYPHIMURIUM, Strain/Indicator: TA102, Metabolic Activation: NONE, Method: PREINCUBATION (7 OR 11 HR GROWTH PERIOD FOR BACTERIA)): inactive; negative
- mutagenic call [3]: inactive; negative
- mutagenic call (Test System: AMES SALMONELLA TYPHIMURIUM, Strain/Indicator: TA102, Metabolic Activation: RAT, LIVER, S-9, AROCLOR 1254, Method: STANDARD PLATE): inactive; negative
- mutagenic call (Test System: AMES SALMONELLA TYPHIMURIUM, Strain/Indicator: TA102, Metabolic Activation: RAT, LIVER, S-9, PCB, Method: PREINCUBATION (5 OR 7 HR GROWTH PERIOD FOR BACTERIA)): inactive; negative

SMILES: C1CCC2(CC1)CO2
- mutagenic call [1]: inactive; negative

SMILES: Cc1ccc2c(c1[N+](=O)[O-])C(=O)c1ccccc1C2=O
- mutagenic call [4]: active; positive
- mutagenic call (Test System: AMES SALMONELLA TYPHIMURIUM, Strain/Indicator: TA98, Metabolic Activation: RAT, LIVER, S-9, AROCLOR 1254, Method: STANDARD PLATE): active; positive
- mutagenic call [2]: active; positive
- mutagenic call (Test System: AMES SALMONELLA TYPHIMURIUM, Strain/Indicator: TA1535, Metabolic Activation: NONE, Method: STANDARD PLATE): inactive; negative
- mutagenic call (Test System: AMES SALMONELLA TYPHIMURIUM, Strain/Indicator: TA1537, Metabolic Activation: RAT, LIVER, S-9, AROCLOR 1254, Method: STANDARD PLATE): active; positive
- mutagenic call (Test System: AMES SALMONELLA TYPHIMURIUM, Strain/Indicator: TA1538, Metabolic Activation: NONE, Method: STANDARD PLATE): active; positive

SMILES: Cc1ccc(N=Nc2ccc(C)c(N)c2)cc1N
- mutagenic call [5]: inactive; negative
- mutagenic call (Test System: AMES SALMONELLA TYPHIMURIUM, Strain/Indicator: TA98, Metabolic Activation: NONE, Method: SUSPENSION/PLATE): inactive; negative
- mutagenic call (Test System: AMES SALMONELLA TYPHIMURIUM, Strain/Indicator: TA98, Metabolic Activation: RAT, LIVER, S-9, PCB, Method: PREINCUBATION): active; positive
- mutagenic call (Test System: AMES SALMONELLA TYPHIMURIUM, Strain/Indicator: TA98, Metabolic Activation: RAT, LIVER, S-9, PHENOBARBITAL AND 5,6-BENZOFLAVONE, Method: SUSPENSION/PLATE): active; positive
- mutagenic call (Test System: AMES SALMONELLA TYPHIMURIUM, Strain/Indicator: TA100, Metabolic Activation: NONE, Method: SUSPENSION/PLATE): inactive; negative
- mutagenic call (Test System: AMES SALMONELLA TYPHIMURIUM, Strain/Indicator: TA100, Metabolic Activation: RAT, LIVER, S-9, PHENOBARBITAL AND 5,6-BENZOFLAVONE, Method: SUSPENSION/PLATE): active; positive

SMILES: OB(O)O
- mutagenic call (End Point: In vitro chromosomal aberrations, Test System: Human peripheral lymphocytes, Metabolic Activation: None): active; positive (structural changes)
- mutagenic call (End Point: In vitro micronucleus, Test System: Human peripheral blood lymphocytes, Metabolic Activation: None): inactive; negative
- mutagenic call (Test System: AMES SALMONELLA TYPHIMURIUM, Strain/Indicator: TA98, Metabolic Activation: HAMSTER, LIVER, S-9, AROCLOR 1254, Method: PREINCUBATION): inactive; negative
- mutagenic call [5]: inactive; negative
- mutagenic call [4]: inactive; negative
- mutagenic call (Test System: AMES SALMONELLA TYPHIMURIUM, Strain/Indicator: TA98, Metabolic Activation: RAT LIVER S-9, PHENOBARBITAL AND BETA-NAPHTHOFLAVONE, Method: PREINCUBATION): inactive; negative
- mutagenic call (Test System: AMES SALMONELLA TYPHIMURIUM, Strain/Indicator: TA98, Metabolic Activation: RAT, LIVER, S-9, AROCLOR 1254, Method: PREINCUBATION): inactive; negative
- mutagenic call (Test System: AMES SALMONELLA TYPHIMURIUM, Strain/Indicator: TA98, Metabolic Activation: RAT, LIVER, S-9, BETA-NAPHTHOFLAVONE AND PHENOBARBITAL, Method: STANDARD PLATE): inactive; negative
- mutagenic call (Test System: AMES SALMONELLA TYPHIMURIUM, Strain/Indicator: TA100, Metabolic Activation: HAMSTER, LIVER, S-9, AROCLOR 1254, Method: PREINCUBATION): inactive; negative
- mutagenic call (Test System: AMES SALMONELLA TYPHIMURIUM, Strain/Indicator: TA100, Metabolic Activation: NONE, Method: PREINCUBATION): inactive; negative
- mutagenic call (Test System: AMES SALMONELLA TYPHIMURIUM, Strain/Indicator: TA100, Metabolic Activation: RAT LIVER S-9, PHENOBARBITAL AND BETA-NAPHTHOFLAVONE, Method: PREINCUBATION): inactive; negative
- mutagenic call (Test System: AMES SALMONELLA TYPHIMURIUM, Strain/Indicator: TA100, Metabolic Activation: RAT, LIVER, S-9, AROCLOR 1254, Method: PREINCUBATION): inactive; negative
- mutagenic call (Test System: AMES SALMONELLA TYPHIMURIUM, Strain/Indicator: TA100, Metabolic Activation: RAT, LIVER, S-9, BETA-NAPHTHOFLAVONE AND PHENOBARBITAL, Method: STANDARD PLATE): inactive; negative
- mutagenic call [3]: inactive; negative
- mutagenic call (Test System: AMES SALMONELLA TYPHIMURIUM, Strain/Indicator: TA102, Metabolic Activation: RAT, LIVER, S-9, BETA-NAPHTHOFLAVONE AND PHENOBARBITAL, Method: STANDARD PLATE): inactive; negative
- mutagenic call (Test System: AMES SALMONELLA TYPHIMURIUM, Strain/Indicator: TA1535, Metabolic Activation: HAMSTER, LIVER, S-9, AROCLOR 1254, Method: PREINCUBATION): inactive; negative
- mutagenic call (Test System: AMES SALMONELLA TYPHIMURIUM, Strain/Indicator: TA1535, Metabolic Activation: NONE, Method: PREINCUBATION): inactive; negative
- mutagenic call (Test System: AMES SALMONELLA TYPHIMURIUM, Strain/Indicator: TA1535, Metabolic Activation: RAT LIVER S-9, PHENOBARBITAL AND BETA-NAPHTHOFLAVONE, Method: PREINCUBATION): inactive; negative
- mutagenic call (Test System: AMES SALMONELLA TYPHIMURIUM, Strain/Indicator: TA1535, Metabolic Activation: RAT, LIVER, S-9, AROCLOR 1254, Method: PREINCUBATION): inactive; negative
- mutagenic call (Test System: AMES SALMONELLA TYPHIMURIUM, Strain/Indicator: TA1537, Metabolic Activation: HAMSTER, LIVER, S-9, AROCLOR 1254, Method: PREINCUBATION): inactive; negative
- mutagenic call (Test System: AMES SALMONELLA TYPHIMURIUM, Strain/Indicator: TA1537, Metabolic Activation: NONE, Method: PREINCUBATION): inactive; negative
- mutagenic call (Test System: AMES SALMONELLA TYPHIMURIUM, Strain/Indicator: TA1537, Metabolic Activation: RAT LIVER S-9, PHENOBARBITAL AND BETA-NAPHTHOFLAVONE, Method: PREINCUBATION): inactive; negative
- mutagenic call (Test System: AMES SALMONELLA TYPHIMURIUM, Strain/Indicator: TA1537, Metabolic Activation: RAT, LIVER, S-9, AROCLOR 1254, Method: PREINCUBATION): inactive; negative
- mutagenic call (Test System: AMES SALMONELLA TYPHIMURIUM, Strain/Indicator: TA1538, Metabolic Activation: NONE, Method: PREINCUBATION): inactive; negative
- mutagenic call (Test System: AMES SALMONELLA TYPHIMURIUM, Strain/Indicator: TA1538, Metabolic Activation: RAT LIVER S-9, PHENOBARBITAL AND BETA-NAPHTHOFLAVONE, Method: PREINCUBATION): inactive; negative
- mutagenic call (Test System: E.COLI, Strain/Indicator: WP2UVRA, Metabolic Activation: NONE, Method: PREINCUBATION): inactive; negative
- mutagenic call (Test System: E.COLI, Strain/Indicator: WP2UVRA, Metabolic Activation: RAT LIVER S-9, PHENOBARBITAL AND BETA-NAPHTHOFLAVONE, Method: PREINCUBATION): inactive; negative
- mutagenic call (Test System: MOUSE LYMPHOMA, Strain/Indicator: L5178Y (TK+/TK-), Metabolic Activation: NONE, Method: SUSPENSION/PLATE): inactive; negative
- mutagenic call (Test System: MOUSE LYMPHOMA, Strain/Indicator: L5178Y (TK+/TK-), Metabolic Activation: RAT, LIVER, S-9, AROCLOR 1254, Method: SUSPENSION/PLATE): inactive; negative

From PubChem BioAssay AID1259407 (Chemical Carcinogenesis Research Information System (CCRIS), 2018)
